One assay deals with T1, human GcgR (Homo sapiens, UniProt P47871).
T1 construct: expressed in transfected cells; crude membranes
Kind of assay: [125I]-Glucagon binding, SPA with WGA beads, 0.1% bacitracin. The conditions noted are these: geometric mean, read-out: hGcgR Ki. Summed up:
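SPA competition binding with WGA beads on crude membranes from HEK293 cells stably expressing hGcgR. Buffer: 25 mM HEPES pH 7.4, 2.5 mM CaCl2, 1 mM MgCl2, 0.1% bacitracin, 0.003% Tween-20; 10-point 3-fold dilutions, NSB with 1 μM Gcg.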

Another assay addresses T2, human GIPR (Homo sapiens, UniProt P48546).
T2 construct: expressed in transfected cells; crude membranes
T2 sequence (P48546 22-466): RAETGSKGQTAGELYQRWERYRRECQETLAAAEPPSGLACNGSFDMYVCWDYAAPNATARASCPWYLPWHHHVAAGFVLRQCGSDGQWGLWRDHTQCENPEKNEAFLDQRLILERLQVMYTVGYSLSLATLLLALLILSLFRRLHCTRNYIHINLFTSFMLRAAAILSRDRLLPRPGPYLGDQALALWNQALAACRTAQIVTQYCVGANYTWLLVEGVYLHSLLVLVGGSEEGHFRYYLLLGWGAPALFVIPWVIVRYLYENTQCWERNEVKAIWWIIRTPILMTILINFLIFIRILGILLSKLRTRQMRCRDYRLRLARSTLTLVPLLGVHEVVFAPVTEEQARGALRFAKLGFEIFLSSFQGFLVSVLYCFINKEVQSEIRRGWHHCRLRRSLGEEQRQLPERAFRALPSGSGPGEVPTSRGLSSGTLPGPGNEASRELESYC
Kind of assay: [125I]-GIP binding, SPA with WGA beads, 0.1% bacitracin. The conditions noted are these: geometric mean, read-out: hGIPR Ki. Summed up: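 Ki values are geometric means (SEM, n independent days), derived from four-parameter nonlinear regression of IC50. Membranes came from hGIPR-expressing CHO cells.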

*1 amine or outer side, *2 acyl side, *3 side chain or, on linkers, in order; H or OH if unused. Where a SMILES comes first, the peptide text is derived from it. Side-chain parts run from the residue outwards. [ ]: non-standard residue; d: D form. The star is where a group is joined. C20 diacid = O=C(O)CCCCCCCCCCCCCCCCCCC(=O)*; αMePhe(2-F) = C[C@](N)(Cc1ccccc1F)C(=O)O; γGlu = O=C(O)[C@H](CCC(=O)[*:2])N[*:1]; αMeF = C[C@](N)(Cc1ccccc1)C(=O)O; 4Pal = N[C@@H](Cc1ccncc1)C(=O)O; αMeL = CC(C)C[C@](C)(N)C(=O)O; AEEA = NCCOCCOCC(=O)O; Aib = CC(C)(N)C(=O)O A value given as a limit tells only on which side of the number the result lay.

This note sets out measurements from patent publication US12723063B2, “GIPR-agonist compounds” (Eli Lilly and Company, priority 2019, dated 2026).

T1 sequence (P47871 26-477): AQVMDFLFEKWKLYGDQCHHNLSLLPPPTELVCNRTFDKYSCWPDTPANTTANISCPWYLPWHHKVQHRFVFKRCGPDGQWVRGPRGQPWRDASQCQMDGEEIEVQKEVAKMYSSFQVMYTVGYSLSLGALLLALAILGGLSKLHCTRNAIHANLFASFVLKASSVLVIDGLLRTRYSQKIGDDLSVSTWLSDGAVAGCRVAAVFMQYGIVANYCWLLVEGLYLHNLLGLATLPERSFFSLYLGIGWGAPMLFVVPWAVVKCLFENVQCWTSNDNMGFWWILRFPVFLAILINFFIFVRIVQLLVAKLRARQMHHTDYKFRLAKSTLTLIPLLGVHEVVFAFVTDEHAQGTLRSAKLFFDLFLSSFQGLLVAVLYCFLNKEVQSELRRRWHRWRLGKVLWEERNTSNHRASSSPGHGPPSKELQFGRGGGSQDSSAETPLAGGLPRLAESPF

On to `CC[C@H](C)[C@H](NC(=O)[C@H](CO)NC(=O)[C@H](Cc1ccc(O)cc1)NC(=O)[C@H](CC(=O)O)NC(=O)[C@H](CO)NC(=O)[C@@H](NC(=O)[C@H](Cc1ccccc1)NC(=O)[C@@H](NC(=O)CNC(=O)[C@H](CCC(=O)O)NC(=O)C(C)(C)NC(=O)[C@@H](N)Cc1ccc(O)cc1)[C@@H](C)O)[C@@H](C)CC)C(=O)N[C@@H](C)C(=O)N[C@@H](CC(C)C)C(=O)N[C@@H](CC(=O)O)C(=O)N[C@@H](CCCCN)C(=O)N[C@H](C(=O)N[C@@H](Cc1c[nH]cn1)C(=O)N[C@@H](CCC(N)=O)C(=O)NC(C)(C)C(=O)N[C@@H](CCC(=O)O)C(=O)N[C@@H](Cc1ccccc1)C(=O)N[C@H](C(=O)N[C@@H](CC(N)=O)C(=O)N[C@@H](Cc1ccc(O)cc1)C(=O)N[C@@H](CCCCNC(=O)COCCOCCNC(=O)COCCOCCNC(=O)CC[C@H](NC(=O)CCCCCCCCCCCCCCCCCCC(=O)O)C(=O)O)C(=O)N[C@@H](CC(C)C)C(=O)N[C@@H](C)C(=O)NCC(=O)NCC(=O)N1CCC[C@H]1C(=O)N[C@@H](CO)C(=O)N[C@@H](CO)C(=O)NCC(=O)N[C@@H](C)C(=O)N1CCC[C@H]1C(=O)N1CCC[C@H]1C(=O)N1CCC[C@H]1C(=O)N[C@@H](CO)C(N)=O)C(C)C)[C@@H](C)CC` [Example 96] (H-Y[Aib]EGTFISDYSIALDKIHQ[Aib]EFVNYK([AEEA-AEEA-γGlu-C20 diacid])LAGGPSSGAPPPS-NH2), for which the results for the Ki on human GcgR and at human GIPR were above 960000 pM and 232 pM, respectively.

Regarding `CC[C@H](C)[C@H](NC(=O)[C@H](CO)NC(=O)[C@H](Cc1ccc(O)cc1)NC(=O)[C@H](CC(=O)O)NC(=O)[C@H](CO)NC(=O)[C@@H](NC(=O)[C@](C)(Cc1ccccc1)NC(=O)[C@@H](NC(=O)CNC(=O)[C@H](CCC(=O)O)NC(=O)C(C)(C)NC(=O)[C@@H](N)Cc1ccc(O)cc1)[C@@H](C)O)[C@@H](C)CC)C(=O)N[C@@H](C)C(=O)N[C@@H](CC(C)C)C(=O)N[C@@H](CC(=O)O)C(=O)N[C@@H](CCCCN)C(=O)N[C@H](C(=O)N[C@@H](Cc1c[nH]cn1)C(=O)N[C@@H](CCC(N)=O)C(=O)NC(C)(C)C(=O)N[C@@H](CCC(=O)O)C(=O)N[C@@H](Cc1ccccc1)C(=O)N[C@H](C(=O)N[C@@H](CC(N)=O)C(=O)N[C@@H](Cc1ccc(O)cc1)C(=O)N[C@@H](CCCCNC(=O)COCCOCCNC(=O)COCCOCCNC(=O)CC[C@H](NC(=O)CCCCCCCCCCCCCCCCCCC(=O)O)C(=O)O)C(=O)N[C@@H](CC(C)C)C(=O)N[C@@H](C)C(=O)NCC(=O)NCC(=O)N1CCC[C@H]1C(=O)N[C@@H](CO)C(=O)N[C@@H](CO)C(=O)NCC(=O)N[C@@H](C)C(=O)N1CCC[C@H]1C(=O)N1CCC[C@H]1C(=O)N1CCC[C@H]1C(=O)N[C@@H](CO)C(N)=O)C(C)C)[C@@H](C)CC` [Example 97] (H-Y[Aib]EGT[αMeF]ISDYSIALDKIHQ[Aib]EFVNYK([AEEA-AEEA-γGlu-C20 diacid])LAGGPSSGAPPPS-NH2), the figures for the Ki on human GcgR and at human GIPR were 77500 pM and 24.9 pM, respectively.

Take `CC[C@H](C)[C@H](NC(=O)[C@H](CO)NC(=O)[C@H](Cc1ccc(O)cc1)NC(=O)[C@H](CC(=O)O)NC(=O)[C@H](CO)NC(=O)[C@@H](NC(=O)[C@](C)(Cc1ccccc1F)NC(=O)[C@@H](NC(=O)CNC(=O)[C@H](CCC(=O)O)NC(=O)C(C)(C)NC(=O)[C@@H](N)Cc1ccc(O)cc1)[C@@H](C)O)[C@@H](C)CC)C(=O)N[C@@H](C)C(=O)N[C@@H](CC(C)C)C(=O)N[C@@H](CC(=O)O)C(=O)N[C@@H](CCCCN)C(=O)N[C@H](C(=O)N[C@@H](Cc1c[nH]cn1)C(=O)N[C@@H](CCC(N)=O)C(=O)NC(C)(C)C(=O)N[C@@H](CCC(=O)O)C(=O)N[C@@H](Cc1ccccc1)C(=O)N[C@H](C(=O)N[C@@H](CC(N)=O)C(=O)N[C@@H](Cc1ccc(O)cc1)C(=O)N[C@@H](CCCCNC(=O)COCCOCCNC(=O)COCCOCCNC(=O)CC[C@H](NC(=O)CCCCCCCCCCCCCCCCCCC(=O)O)C(=O)O)C(=O)N[C@@H](CC(C)C)C(=O)N[C@@H](C)C(=O)NCC(=O)NCC(=O)N1CCC[C@H]1C(=O)N[C@@H](CO)C(=O)N[C@@H](CO)C(=O)NCC(=O)N[C@@H](C)C(=O)N1CCC[C@H]1C(=O)N1CCC[C@H]1C(=O)N1CCC[C@H]1C(=O)N[C@@H](CO)C(N)=O)C(C)C)[C@@H](C)CC` [Example 98] (H-Y[Aib]EGT[αMePhe(2-F)]ISDYSIALDKIHQ[Aib]EFVNYK([AEEA-AEEA-γGlu-C20 diacid])LAGGPSSGAPPPS-NH2): the Ki was 38400 pM on human GcgR and 19.5 pM at human GIPR.

For `CC[C@H](C)[C@H](NC(=O)[C@H](CO)NC(=O)[C@H](Cc1ccc(O)cc1)NC(=O)[C@H](CC(=O)O)NC(=O)[C@H](CO)NC(=O)[C@@H](NC(=O)[C@](C)(Cc1ccccc1F)NC(=O)[C@@H](NC(=O)CNC(=O)[C@H](CCC(=O)O)NC(=O)C(C)(C)NC(=O)[C@@H](N)Cc1ccc(O)cc1)[C@@H](C)O)[C@@H](C)CC)C(=O)N[C@@H](C)C(=O)N[C@@H](CC(C)C)C(=O)N[C@@H](CC(=O)O)C(=O)N[C@@H](CCCCN)C(=O)N[C@H](C(=O)N[C@@H](Cc1c[nH]cn1)C(=O)N[C@@H](CCC(N)=O)C(=O)NC(C)(C)C(=O)N[C@@H](CC(=O)O)C(=O)N[C@@H](Cc1ccccc1)C(=O)N[C@H](C(=O)N[C@@H](CCC(=O)O)C(=O)N[C@@H](Cc1ccc(O)cc1)C(=O)N[C@@H](CCCCNC(=O)COCCOCCNC(=O)COCCOCCNC(=O)CC[C@H](NC(=O)CCCCCCCCCCCCCCCCCCC(=O)O)C(=O)O)C(=O)N[C@@H](CC(C)C)C(=O)N[C@@H](CCC(=O)O)C(=O)NCC(=O)NCC(=O)N1CCC[C@H]1C(=O)N[C@@H](CO)C(=O)N[C@@H](CO)C(=O)NCC(=O)N[C@@H](C)C(=O)N1CCC[C@H]1C(=O)N1CCC[C@H]1C(=O)N1CCC[C@H]1C(=O)N[C@@H](CO)C(N)=O)C(C)C)[C@@H](C)CC` [Example 99] (H-Y[Aib]EGT[αMePhe(2-F)]ISDYSIALDKIHQ[Aib]DFVEYK([AEEA-AEEA-γGlu-C20 diacid])LEGGPSSGAPPPS-NH2), the results for the inhibition constant Ki at human GcgR and at human GIPR were 174000 pM and 34.1 pM, respectively.

Take `CC[C@H](C)[C@H](NC(=O)[C@H](CCCCN)NC(=O)[C@H](CC(=O)O)NC(=O)[C@H](CC(C)C)NC(=O)[C@](C)(CC(C)C)NC(=O)[C@@H](NC(=O)[C@H](CO)NC(=O)[C@H](Cc1ccc(O)cc1)NC(=O)[C@H](CC(=O)O)NC(=O)[C@H](CO)NC(=O)[C@@H](NC(=O)[C@H](Cc1ccccc1)NC(=O)[C@@H](NC(=O)CNC(=O)[C@H](CCC(=O)O)NC(=O)C(C)(C)NC(=O)[C@@H](N)Cc1ccc(O)cc1)[C@@H](C)O)[C@@H](C)CC)[C@@H](C)CC)C(=O)N[C@@H](Cc1c[nH]cn1)C(=O)N[C@@H](CCC(N)=O)C(=O)NC(C)(C)C(=O)N[C@@H](CCC(=O)O)C(=O)N[C@@H](Cc1ccccc1)C(=O)N[C@H](C(=O)N[C@@H](CCC(=O)O)C(=O)N[C@@H](Cc1ccncc1)C(=O)N[C@@H](CCCCNC(=O)COCCOCCNC(=O)COCCOCCNC(=O)CC[C@H](NC(=O)CCCCCCCCCCCCCCCCCCC(=O)O)C(=O)O)C(=O)N[C@@H](CC(C)C)C(=O)N[C@@H](CCC(=O)O)C(=O)NCC(=O)NCC(=O)N1CCC[C@H]1C(=O)N[C@@H](CO)C(=O)N[C@@H](CO)C(=O)NCC(=O)N[C@@H](C)C(=O)N1CCC[C@H]1C(=O)N1CCC[C@H]1C(=O)N1CCC[C@H]1C(=O)N[C@@H](CO)C(N)=O)C(C)C` [Example 100] (H-Y[Aib]EGTFISDYSI[αMeL]LDKIHQ[Aib]EFVE[4Pal]K([AEEA-AEEA-γGlu-C20 diacid])LEGGPSSGAPPPS-NH2): the Ki was found to be 572000 pM at human GcgR and 67.4 pM at human GIPR.

As to `CC[C@H](C)[C@H](NC(=O)[C@H](CCCN)NC(=O)[C@H](CC(=O)O)NC(=O)[C@H](CC(C)C)NC(=O)[C@](C)(CC(C)C)NC(=O)[C@@H](NC(=O)[C@H](CO)NC(=O)[C@H](Cc1ccc(O)cc1)NC(=O)[C@H](CC(=O)O)NC(=O)[C@H](CO)NC(=O)[C@@H](NC(=O)[C@H](Cc1ccccc1)NC(=O)[C@@H](NC(=O)CNC(=O)[C@H](CCC(=O)O)NC(=O)C(C)(C)NC(=O)[C@@H](N)Cc1ccc(O)cc1)[C@@H](C)O)[C@@H](C)CC)[C@@H](C)CC)C(=O)N[C@@H](Cc1c[nH]cn1)C(=O)N[C@@H](CCC(N)=O)C(=O)NC(C)(C)C(=O)N[C@@H](CC(=O)O)C(=O)N[C@@H](Cc1ccccc1)C(=O)N[C@H](C(=O)N[C@H](CCC(=O)O)C(=O)N[C@@H](Cc1ccc(O)cc1)C(=O)N[C@@H](CCCCNC(=O)COCCOCCNC(=O)COCCOCCNC(=O)CC[C@H](NC(=O)CCCCCCCCCCCCCCCCCCC(=O)O)C(=O)O)C(=O)N[C@@H](CC(C)C)C(=O)N[C@@H](CCC(=O)O)C(=O)NCC(=O)NCC(=O)N1CCC[C@H]1C(=O)N[C@@H](CO)C(=O)N[C@@H](CO)C(=O)NCC(=O)N[C@@H](C)C(=O)N1CCC[C@H]1C(=O)N1CCC[C@H]1C(=O)N1CCC[C@H]1C(=O)N[C@@H](CO)C(N)=O)C(C)C` [Example 101], the inhibition constant (Ki) at human GcgR is above 961000 pM; on human GIPR, 139 pM.

Broadly, the Ki is a dissociation constant, usually derived from enzyme kinetics or from competition with a known ligand.
